These results are taken from PubChem BioAssay AID2305 (GlaxoSmithKline (GSK), 2010).

One may read the IC50 as the midpoint of a concentration-inhibition curve. Low values mean greater potency in that assay, high ones weaker potency in that assay.

The experiment concerns P. falciparum 3D7 growth, pLDH absorbance. The experiment is described as follows: P. falciparum 3D7 growth inhibition, dose response, strain 3D7 (AID 2305).

`O=C(Nc1ccccc1F)N(CCCn1ccnc1)Cc1csc(-c2ccc(CNCc3ccccc3)cc2)n1` yielded a half-maximal inhibitory concentration (IC50) of 840 nM. Turning to `CN(C)Cc1c(O)ccc2oc(Cc3ccccc3)cc12`, the 50% inhibitory concentration (IC50) amounted to 910 nM. The compound `CN1CCN(CCCN(Cc2ccc(-c3cccc(CNCc4ccc5c(c4)OCO5)c3)cc2)C(=O)Nc2ccccc2)CC1` returned a 50% inhibitory concentration (IC50) of 180 nM. In turn, `NCc1ccc(-c2ccccc2CN(C(=O)Nc2ccccc2)C2CCN(Cc3ccccc3)CC2)cc1` returned a 50% inhibitory concentration (IC50) of 880 nM. This IC50 lies about 4.9-fold higher than the previous one. In turn, `O=C(Nc1ccc(C(F)(F)F)cc1)NC1CCN(c2ccnc3ccccc23)C1` (stereo not given) yielded an IC50 of 90 nM. This IC50 lies about 9.8-fold lower than the previous one. With `Cc1cccc2[nH]c(-c3ccc(-c4cccc(CN5CCCC(O)C5)c4)s3)nc12` (stereo not given) the figure was 940 nM; with `CC(Nc1ccc2c(c1)CCC2)C(=O)Nc1cc(C(F)(F)F)ccc1N1CCOCC1` (stereo not given), 90 nM. `O=C(Nc1ccc(F)c(F)c1)c1ccc(CN2CCCN(Cc3cccc(F)c3)CC2)cc1` came in with a half-inhibitory concentration (IC50) of 1120 nM. This IC50 lies about 12-fold higher than the previous one. Compound `OCCN1CCN(c2ccc(Nc3ccnc4cc5ccccc5cc34)cc2)CC1` yielded an IC50 of 40 nM.

Consider `O=C(Nc1ccc(C(F)(F)F)cc1)c1cccc(S(=O)(=O)NC2CCN(CC3CCCCC3)CC2)c1`, for which the concentration for half-maximal inhibition (IC50) amounted to 850 nM.

For the compound `Clc1ccc2c(NCc3ccc4c(c3)OCO4)ccnc2c1`, the IC50 worked out at 270 nM.

The compound `O=c1cc(NCCCNCc2cccc3c2OC(F)(F)O3)[nH]c2ccccc12` had an IC50 of 950 nM. `COc1cccc(-c2ccc3c(-c4cccc(NC(C)=O)c4)cnc(N)c3c2)c1` gave a 50% inhibitory concentration (IC50) of 110 nM. The compound `COc1ccc(-c2nc(NC(=O)CSc3ccc([N+](=O)[O-])cc3)sc2C)cc1` returned a concentration for half-maximal inhibition (IC50) of 140 nM. Take `Cc1cccc2[nH]c(-c3ccc(-c4ccc(NC(=O)c5cncn5C)cc4)s3)nc12`: the half-inhibitory concentration (IC50) stood at 670 nM. `Cc1[nH]nc2cc(Nc3ccnc(Nc4cccc(CN5CCOCC5)c4)n3)ccc12` showed a half-inhibitory concentration (IC50) of 1580 nM. On to `Oc1cc2c(cc1CN1CCN(Cc3ccccc3F)CC1)CCC2`, for which the 50% inhibitory concentration (IC50) turned out to be 760 nM. Compound `CC1(C)CCCC(=Cc2ccc(Br)cc2)C1(O)Cn1ccnc1` (stereo not given) yielded an IC50 of 790 nM. This IC50 and that of the compound before are within 1.5-fold of each other. `Cc1cc(SC(C)(C)C)cc2c(Cl)c(C(N)=O)cnc12` gave a half-inhibitory concentration (IC50) of 1090 nM. With `Cc1[nH]c(C)c(-c2ccc(-c3ccc(Cl)cc3)nc2)c(=O)c1Br`, the half-inhibitory concentration (IC50) worked out at 110 nM.

With `COc1ccccc1C1CCN(C2CCC(NC(=O)/C=C/c3cccc(C(F)(F)F)c3)CC2)CC1` (stereo not given), the IC50 was 810 nM. `Nc1nc2c(c(=O)[nH]1)-c1cccc(Br)c1CC2` displayed a concentration for half-maximal inhibition (IC50) of 700 nM.

The compound `CN1CCN(CCCN(Cc2csc(-c3ccc(CNCc4ccccc4)cc3)n2)C(=O)Nc2cc(Cl)cc(Cl)c2)CC1` gave a concentration for half-maximal inhibition (IC50) of 700 nM. For `O=S(=O)(NCCN1CCCC1)c1ccc(-c2cccc(CNCc3ccc(F)cc3)c2)cc1`, the half-maximal inhibitory concentration (IC50) is 730 nM. Under `CCCCN=C(N)Nc1ccc(OCCCOc2ccc(NC(N)=NCCCC)cc2)cc1` stands 160 nM. Regarding `Nc1ncc(-c2ccsc2)cc1-c1nc2ccccc2[nH]1`, the IC50 was determined as 850 nM. For `Cc1cc(N2CCNCC2)c2cc(NC(=O)Nc3ccc(Cl)c(Cl)c3)ccc2n1`, the half-maximal inhibitory concentration (IC50) came to 310 nM. In turn, `c1ccc2c(c1)CN(CC1CC1)CC1(CCN(Cc3c[nH]c4cnccc34)CC1)O2` had a 50% inhibitory concentration (IC50) of 900 nM.

Compound `COc1cc2nc(N3CCC(CNC(=O)c4ccc(-c5ccccc5)cc4)CC3)nc(N)c2cc1OC` came in with an IC50 of 570 nM. The compound `COc1ccc(Cl)cc1N1CCN(CCCNC(=O)c2ccc(-c3nc4cc(Cl)c(F)cc4[nH]3)s2)CC1` yielded an IC50 of 310 nM. Turning to `Cc1cc(=O)c(-c2ccc(OCc3ccc(OC(F)(F)F)cc3)cc2)c(C)[nH]1`, the half-inhibitory concentration (IC50) was found to be 740 nM. This IC50 is about 2.4-fold higher than that of the compound before. `CCOc1cc(C)ccc1N1CCN(CCCCNC(=O)c2ccc(NC(=O)c3ccc(Cl)cc3)cc2)CC1`: the IC50 is 640 nM. `Cc1cccc(C)c1OC(=O)[C@@H](C)[C@@H](O)C1(Sc2ccccc2)CCN(C)CC1` returned a half-inhibitory concentration (IC50) of 730 nM. In the case of `Cc1ccc2c(c1)c(-c1ccccc1)c(-c1ccccc1)n2CC(O)CN1CCN(CC=Cc2ccccc2)CC1` (stereo not given), the IC50 turned out to be 780 nM. The IC50 values of the last two compounds are within 1.5-fold of each other. `O=C(Nc1ccc(-c2nc3ccccc3[nH]2)cc1)C1CCN(Cc2ccccc2)CC1`: the IC50 amounted to 1760 nM. Consider `NCC1CCCN1Cc1cccc(-c2cccc(-c3nc4ccc(F)cc4[nH]3)c2)c1` (stereo not given), for which the IC50 was 810 nM. Compared with the last compound, the IC50 is about 2.2-fold lower. Under `N#Cc1cncc(-c2nc3c(N4CCC(Cc5ccccc5)CC4)cccc3n2CCNCc2ccccc2)c1` stands 570 nM; under `O=c1cc(NCCCNCc2cc(Cl)c(Cl)cc2Cl)[nH]c2ccccc12`, 970 nM; under `O=C(Nc1cc(C(F)(F)F)cc(C(F)(F)F)c1)c1cc(C(F)(F)F)cc(C(F)(F)F)c1`, 870 nM.

`Fc1ccc2nc(-c3ccc(-c4ccc(CN5CCN(c6cnccn6)CC5)cc4)s3)[nH]c2c1` came in with an IC50 of 620 nM.

`COC(=O)C(c1ccc(NC(=O)[C@H](CC(C)C)NC(=O)OC(C)(C)C)cc1)c1ccc(NC(=O)[C@H](CC(C)C)NC(=O)OC(C)(C)C)cc1`: the IC50 came to 350 nM. With `CCc1nnc2sc(-c3cccc(NC(=O)c4ccc(OC)c(Cl)c4)c3)nn12` the figure was 1140 nM; with `COc1ccc2nccc([C@@H](O)CN3CCC(NC(=O)c4ccc(-c5ccc(C#N)cc5)cc4)CC3)c2c1`, 160 nM; with `NS(=O)(=O)c1ccc(CNc2ccc3ncc(-c4ccc(Cl)cc4)n3n2)cc1`, 280 nM. Under `O=C(Nc1ccc(-c2nc3ccccc3[nH]2)cc1)c1ccc(S(=O)(=O)N2CCCCC2)cc1` stands 750 nM. As for `CS(=O)(=O)c1ccc(-c2nc(NCC3CCCCC3)cc(C(F)(F)F)n2)cc1`, the IC50 is 670 nM. With `Cc1[nH]c(C)c(-c2ccc(Oc3cc(Cl)cc(Cl)c3)cc2)c(=O)c1Cl` the figure was 520 nM. Turning to `Cc1cc(CN2CCCC(OC(c3ccc(F)cc3)c3ccc(F)cc3)C2)ccc1O` (stereo not given), the 50% inhibitory concentration (IC50) came out at 880 nM. Against the preceding compound, the IC50 is about 1.7-fold higher. Compound `Cn1ncc2c3c(CCN4CCC(NCc5ccc6c(c5)NC(=O)CO6)CC4)c(Cl)cnc3ccc21` had a half-inhibitory concentration (IC50) of 490 nM. `O=C(Nc1cccc(CN2CCCN(Cc3ncc[nH]3)CC2)c1)c1ccc2ccccc2c1`: the IC50 worked out at 630 nM. On to `CC(C)C(=O)Nc1c(F)cc(F)cc1CCc1ccc(O)cc1`, for which the IC50 was found to be 500 nM.

On to `CCc1ccc(NC(=O)c2ccc(CN3CCCN(Cc4ccc(C)s4)CC3)cc2)cc1`, for which the IC50 amounted to 1150 nM. With `COc1cc(SC)ccc1C(=O)N1CC(C)CC(C)C1` (stereo not given) the figure was 350 nM.

`Cc1cc2nc(-c3ccc(/C=C/C(=O)NCc4ccc(Cl)c(Cl)c4)cc3)[nH]c2cc1C` came in with an IC50 of 820 nM. As to `CCN1CCN(C(=O)NC(C(=O)N(C)Cc2ccc(-c3ccc(C(F)(F)F)cc3)cc2)c2cccs2)C(=O)C1=O` (stereo not given), the half-maximal inhibitory concentration (IC50) came out at 360 nM. `CCn1cc(-c2nc(-c3cc(OC)cc(OC)c3)no2)c(=O)c2ccccc21` returned a half-maximal inhibitory concentration (IC50) of 340 nM. With `CN1CCc2ccc(NC(=O)Nc3ccc(Cl)c(Cl)c3)cc2C1` the figure was 720 nM; with `Oc1cccc(Nc2ccnc3cc(-c4ccccn4)ccc23)c1`, 740 nM. For `Fc1cccc(COc2ccc(Nc3ncnc4sc(C#Cc5ncc[nH]5)cc34)cc2Cl)c1`, the half-maximal inhibitory concentration (IC50) was determined as 130 nM. Regarding `COc1cc2[nH]c(-c3ccc(O)cc3)c(C)c(=O)c2c(OC)c1OC`, the half-maximal inhibitory concentration (IC50) is 720 nM. For the compound `OCCNc1nc(Nc2cccc(O)c2)nc2ccccc12`, the IC50 amounted to 390 nM. With `Cc1c(Cl)cccc1NC(=S)NN=Cc1ccccn1` the figure was 600 nM. `Cc1ccc(CNC(=O)c2cnc(N3CCN(c4ccncc4)CC3)c(Cl)c2)cc1` came in with a half-inhibitory concentration (IC50) of 1290 nM. This IC50 lies about 2.1-fold higher than the previous one.

In turn, `NC(=O)c1ccccc1Nc1nc(Nc2ccc(N3CCOCC3)cc2)ncc1[N+](=O)[O-]` gave an IC50 of 880 nM. On to `O=C(c1cccc(COc2ccc3c(c2)CCN(C2CCCC2)CC3)c1)N1CCN(c2ccncc2)CC1`, for which the IC50 was 740 nM. In turn, `N#Cc1ccc2c(c1)CCN(CCC1CCC(NC(=O)/C=C/c3cccc4ccccc34)CC1)CC2` (stereo not given) had an IC50 of 730 nM. The IC50 values of the last two compounds are within 1.5-fold of each other. In turn, `O=C(Nc1n[nH]c2nc(-c3ccco3)c(Br)cc12)c1ccc(CN2CCCC2)cc1` showed an IC50 of 790 nM. This IC50 and that of the compound before are within 1.5-fold of each other. Under `CCN1CCN(CCCNc2ccnc3cc(Cl)ccc23)CC1` stands 70 nM; under `COc1ccc(CN2CCCC(Nc3ccc(F)c(F)c3)C2)c(O)c1` (stereo not given), 1090 nM. `O=C(Nc1ccc(Cl)cc1)c1ccc(CN2CCCN(Cc3cccc(O)c3)CC2)cc1` showed a concentration for half-maximal inhibition (IC50) of 390 nM.

As to `O=C(Nc1cccc(C(F)(F)F)c1)Nc1nc2ccc([N+](=O)[O-])cc2s1`, the IC50 worked out at 690 nM. Turning to `CN1CCC(NCc2ccc(-c3ccc(S(=O)(=O)NC4CCC4)s3)cc2)CC1`, the IC50 worked out at 850 nM. This IC50 and that of the compound before are within 1.5-fold of each other. In turn, `Cc1cc(C(=O)NCc2ccc(-c3c(C)noc3C)cc2)n(-c2ccc(Cl)cc2)n1` returned an IC50 of 530 nM. As for `CCc1cc(NCc2ccncc2)nc(Nc2ccc(F)cc2)n1`, the 50% inhibitory concentration (IC50) is 1330 nM. Consider `O=C(CNc1ccc(Cl)c(S(=O)(=O)N2CCCC2)c1)Nc1ccc(Br)cc1F`, for which the IC50 was 320 nM. Regarding `Cc1cc(-c2nc3ccc(CN4CCN(C)CC4)cc3[nH]2)nn1Cc1cc(Cl)ccc1OCc1ccccc1`, the IC50 is 1120 nM.

`CN(CCCCN)Cc1ccc(-c2ccc(Cl)cc2)cc1` yielded an IC50 of 880 nM. The compound `NC1=NCN(OCc2ccc(Cl)c(Cl)c2)C(N)=N1` showed a 50% inhibitory concentration (IC50) of 190 nM.

In turn, `COc1cc(OC)nc(C(Sc2ccc(NC(=O)c3cccs3)cc2)c2ccccc2)n1` (stereo not given) gave an IC50 of 60 nM. Compound `O=C(NC1CCN(c2ccnc3cc(Cl)ccc23)C1)c1ccccc1F` (stereo not given) displayed a half-maximal inhibitory concentration (IC50) of 970 nM. `Cc1cc(C=C2SC(=Nc3ccccc3)N(C3CCCC3)C2=O)c(C)n1-c1ccc(Cl)cc1` gave an IC50 of 880 nM. This IC50 and that of the compound before are within 1.5-fold of each other.

For the compound `CCCC(=O)Nc1ccc(OCCCN(Cc2ccccc2C(F)(F)F)c2ccc(C#N)c(C(F)(F)F)c2)cc1`, the IC50 turned out to be 930 nM.

The compound `CCC(CC(C)C(=O)O)=C(c1ccccc1)c1ccccc1` (stereo not given) returned a half-inhibitory concentration (IC50) of 220 nM. This IC50 lies about 4.2-fold lower than the previous one. Regarding `O=C(Nc1ccc(Br)c(Cl)c1)c1cc([N+](=O)[O-])cc2cn[nH]c12`, the IC50 turned out to be 1060 nM. This IC50 is about 4.8-fold higher than that of the compound before. `CCn1c(-c2nonc2N)nc2c(-c3cccc(NC(=O)Nc4ccc(Cl)cc4)c3)ncc(OCCCN)c21`: the IC50 is 830 nM. This IC50 and that of the compound before are within 1.5-fold of each other. With `c1csc(-c2nc(N3CCCCC3)ncc2-c2ccsc2)n1`, the concentration for half-maximal inhibition (IC50) was determined as 140 nM. For `CN1CCCN(Cc2ccc(-c3ccc(NS(=O)(=O)c4cccc5cccnc45)cc3)cc2)CC1`, the 50% inhibitory concentration (IC50) came to 690 nM. As to `CCCCN(CCCC)CCCN(CCCN(CCCC)CCCC)c1cc(C)nc(Nc2ccc(Cl)cc2)n1`, the IC50 turned out to be 370 nM. On to `CCCCC#Cc1cnc2nc(N)[nH]c(=O)c2n1`, for which the concentration for half-maximal inhibition (IC50) stood at 650 nM. This IC50 is about 1.8-fold higher than that of the compound before. `CC1(C)N=C(N)N=C(N)N1OCc1cc(Cl)c(CON2C(N)=NC(N)=NC2(C)C)cc1Cl` came in with a half-maximal inhibitory concentration (IC50) of 40 nM.
